# Results: patent US9844556B2, “Preventive/therapeutic method and preventive/therapeutic agent for complications after cataract surgery” (KOWA COMPANY, LTD., priority 2015, dated 2017)
# Experiments:
# [1] = test system: HLEpiC; assay: Inhibitory action on cell migration (Oris Cell Migration plate); type: cell-based, human; conditions: about 24 and 48 hours after treatment
# Description: HLEpiC was diluted with a medium (Epithelial Cell Medium) and dispensed to Poly-L-lysine coated Oris™ Cell Migration 96 well plate, to which a stopper was firmly attached, at 50 μL/well (25000 cells/well) and cultured in a carbon dioxide incubator (37° C., 5% CO2) for 24 hours. The stopper was removed, and after brief washing with the medium, a solution obtained by adding 5 μL of 10 mM Cell Tracker Green Fluorescent Probe (Lonza Walkersville, Inc.) to 4995 μL of the medium was added at 100 μL/well, and the cells were stained in a carbon dioxide incubator (37° C., 5% CO2) for about 30 minutes. After brief washing with the medium, the medium was further added and the cells were cultured in a carbon dioxide incubator (37° C., 5% CO2) for about 30 minutes.
# After brief washing with the medium, a test substance, a positive control, a comparative control or the medium (control) at each concentration given below was added at 100 μL/well.
# Test substance: Ripasudil with a concentration of […], 100 μM or 1 mM,
# Positive control: CD with a concentration of 2 μM,
# These were cultured in a carbon dioxide incubator (37° C., 5% CO2). The state of HLEpiC in the Detection Zone in each sample was observed by a confocal laser scanning microscope about 24 hours after the treatment and 48 hours after the treatment.
# [2] = test system: Human lens epithelial cells (HLEpiC); assay: Inhibitory action on actin stress fiber formation (phalloidin staining, confocal microscopy); type: cell-based; conditions: treated about an hour
# Description: Human lens epithelial cells (HLEpiC (ScienCell Research Laboratories)) were diluted with a medium (Epithelial Cell Medium (ScienCell Research Laboratories)), dispensed to each well of Poly-L-lysine (ScienCell Research Laboratories) coated Imaging Chamber CG at 100 μL/well (about 5000 cells/cm^2), and cultured in a carbon dioxide incubator (37° C., 5% CO2) until about 50% confluent. The medium was removed with vacuum suction and a test substance, a positive control, a comparative control, or the medium (control) at each concentration given below was added to each well at 300 μL/well:
# Test substance: Ripasudil with a concentration of 10 μM, 100 μM or 1 mM,
# Positive control: Cytochalasin D with a concentration of 2 μM,
# These were treated in a carbon dioxide incubator (37° C., 5% CO2) for about an hour, and then washed once with the medium. 4% Paraformaldehyde Phosphate Buffer Solution (Wako Pure Chemical Industries, Ltd.) (hereinafter, referred to as a fixative solution) was added at 300 μL/well, and fixation was carried out at room temperature for 2 minutes. After washing with the medium, 0.5% Triton X-100 (Roche Diagnostics K.K.) was added at 300 μL/well, and penetrated at room temperature for 2 minutes. After washing with the medium, the fixative solution was added at 300 μL/well, and fixation was carried out at room temperature for 20 minutes.
# Separately, 25 μL of 14 μM Actin-Stain™ 555 phalloidin (Cytoskeleton, Inc.) (hereinafter, referred to as Phalloidin) was added to 3475 μL of 10 mM phosphate buffered saline (Wako Pure Chemical Industries, Ltd.) to produce 100 nM Phalloidin.
# This 100 nM Phalloidin was added to each well washed with the medium at 200 μL/well, and staining was carried out at room temperature in a dark place for about 60 minutes.
# After washing with the medium, the chamber was removed, and […] Mounting Medium with DAPI (Vector Laboratories, Inc.) was dropped onto a cover glass with a few drops. A slide glass was placed thereon and this was left to stand at room temperature in a dark place for 30 minutes or more, and adhesion and nuclear staining were carried out and then observed by a confocal laser scanning microscope.
compound,measurement,setting,value
"C[C@H]1CNCCCN1S(=O)(=O)c1cccc2cncc(F)c12 [Ripasudil, 4-fluoro-5-{[(2S)-2-methyl-1,4-diazepan-1-yl]sulfonyl}isoquinoline]",cell migration into Detection Zone (observation),[1]; 100 μM,tendency of inhibition of cell migration
same,cell migration into Detection Zone (observation),[1]; 1 mM,definite inhibitory action on cell migration
same,actin stress fibers (observation),[2]; 10 μM,slightly disappear
same,actin stress fibers (observation),[2]; 100 μM,significantly disappear
same,actin stress fibers (observation),[2]; 1 mM,significantly disappear
